Assay results published in paper PMC8213057, “Targeting ALK2: An Open Science Approach to Developing Therapeutics for the Treatment of Diffuse Intrinsic Pontine Glioma” (Journal of Medicinal Chemistry, 2020).

Tests used:
FMS = target: T1, FMS (Homo sapiens, UniProt P07333); assay: 375-member kinase panel; type: biochemical; conditions: Run 1, Run 2; for % enzyme activity: 1 μM; for remaining activity at 1 µM: read-out: % enzyme activity, 1 μM
T1 construct: purchased Reaction Biology Corporation

MINK/MINK1 = target: T2, MINK/MINK1 (Homo sapiens, UniProt Q8N4C8); assay: 375-member kinase panel; type: biochemical; conditions: Run 1, Run 2; for % enzyme activity: 1 μM; for remaining activity at 1 µM: read-out: % enzyme activity, 1 μM
T2 construct: purchased Reaction Biology Corporation

CDK1/cyclin E = CDK1/cyclin E (Homo sapiens, UniProt P06493); conditions: 1 μM; Run 1, Run 2
EPHA4 = EPHA4 (Homo sapiens, UniProt P54764); conditions: 1 μM; Run 1, Run 2
NEK5 = target: T3, NEK5 (Homo sapiens, UniProt Q6P3R8); conditions: 1 μM; Run 1, Run 2
T3 sequence (Q6P3R8 1-708): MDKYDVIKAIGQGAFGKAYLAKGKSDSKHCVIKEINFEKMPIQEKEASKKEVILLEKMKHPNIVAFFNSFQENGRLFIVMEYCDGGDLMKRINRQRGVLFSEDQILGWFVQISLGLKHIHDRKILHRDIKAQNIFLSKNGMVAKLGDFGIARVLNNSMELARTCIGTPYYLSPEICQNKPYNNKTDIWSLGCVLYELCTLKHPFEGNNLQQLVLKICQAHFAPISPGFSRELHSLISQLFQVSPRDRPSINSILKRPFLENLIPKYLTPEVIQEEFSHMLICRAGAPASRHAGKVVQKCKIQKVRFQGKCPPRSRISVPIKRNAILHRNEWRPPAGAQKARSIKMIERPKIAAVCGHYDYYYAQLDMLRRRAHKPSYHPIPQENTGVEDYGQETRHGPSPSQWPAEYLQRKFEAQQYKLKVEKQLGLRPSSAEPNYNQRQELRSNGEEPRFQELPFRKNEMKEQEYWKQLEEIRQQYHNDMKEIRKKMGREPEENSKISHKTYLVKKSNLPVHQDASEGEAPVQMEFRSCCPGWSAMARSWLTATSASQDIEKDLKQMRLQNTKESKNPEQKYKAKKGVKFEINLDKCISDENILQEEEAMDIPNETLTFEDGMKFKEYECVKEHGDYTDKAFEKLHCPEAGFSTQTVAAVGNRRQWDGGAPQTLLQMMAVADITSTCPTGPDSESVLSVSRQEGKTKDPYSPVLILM

CDK2/cyclin A = CDK2/cyclin A (Homo sapiens, UniProt P24941); assay: biochemical; conditions: read-out: % enzyme activity, 1 μM; Run 1, Run 2
DYRK3 = target: T4, DYRK3 (Homo sapiens, UniProt O43781); assay: biochemical; conditions: read-out: % enzyme activity, 1 μM; Run 1, Run 2
T4 sequence (O43781 1-588): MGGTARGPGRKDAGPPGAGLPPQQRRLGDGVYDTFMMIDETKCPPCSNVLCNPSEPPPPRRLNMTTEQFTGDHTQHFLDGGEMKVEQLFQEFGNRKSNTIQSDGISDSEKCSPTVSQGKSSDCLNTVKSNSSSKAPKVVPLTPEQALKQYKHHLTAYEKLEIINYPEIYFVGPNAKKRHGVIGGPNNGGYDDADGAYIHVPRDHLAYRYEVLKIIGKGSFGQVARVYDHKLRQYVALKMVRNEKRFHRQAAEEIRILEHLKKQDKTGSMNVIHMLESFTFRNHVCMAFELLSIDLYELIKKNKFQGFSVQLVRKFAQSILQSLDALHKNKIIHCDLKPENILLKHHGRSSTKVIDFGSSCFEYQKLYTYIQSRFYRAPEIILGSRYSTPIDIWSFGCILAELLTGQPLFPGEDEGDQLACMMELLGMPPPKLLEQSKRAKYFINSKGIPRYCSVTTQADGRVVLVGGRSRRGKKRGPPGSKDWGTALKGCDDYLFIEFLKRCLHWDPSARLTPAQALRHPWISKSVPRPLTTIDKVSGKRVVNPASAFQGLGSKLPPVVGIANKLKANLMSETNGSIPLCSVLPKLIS

GSK3a = GSK3a (Homo sapiens, UniProt P49840); assay: biochemical; conditions: read-out: % enzyme activity, 1 μM; Run 1, Run 2
IRR/INSRR = IRR/INSRR (Homo sapiens, UniProt P14616); assay: biochemical; conditions: read-out: % enzyme activity, 1 μM; Run 1, Run 2
SNRK = target: T5, SNRK (Homo sapiens, UniProt Q9NRH2); assay: biochemical; conditions: read-out: % enzyme activity, 1 μM; Run 1, Run 2
T5 sequence (Q9NRH2 1-765): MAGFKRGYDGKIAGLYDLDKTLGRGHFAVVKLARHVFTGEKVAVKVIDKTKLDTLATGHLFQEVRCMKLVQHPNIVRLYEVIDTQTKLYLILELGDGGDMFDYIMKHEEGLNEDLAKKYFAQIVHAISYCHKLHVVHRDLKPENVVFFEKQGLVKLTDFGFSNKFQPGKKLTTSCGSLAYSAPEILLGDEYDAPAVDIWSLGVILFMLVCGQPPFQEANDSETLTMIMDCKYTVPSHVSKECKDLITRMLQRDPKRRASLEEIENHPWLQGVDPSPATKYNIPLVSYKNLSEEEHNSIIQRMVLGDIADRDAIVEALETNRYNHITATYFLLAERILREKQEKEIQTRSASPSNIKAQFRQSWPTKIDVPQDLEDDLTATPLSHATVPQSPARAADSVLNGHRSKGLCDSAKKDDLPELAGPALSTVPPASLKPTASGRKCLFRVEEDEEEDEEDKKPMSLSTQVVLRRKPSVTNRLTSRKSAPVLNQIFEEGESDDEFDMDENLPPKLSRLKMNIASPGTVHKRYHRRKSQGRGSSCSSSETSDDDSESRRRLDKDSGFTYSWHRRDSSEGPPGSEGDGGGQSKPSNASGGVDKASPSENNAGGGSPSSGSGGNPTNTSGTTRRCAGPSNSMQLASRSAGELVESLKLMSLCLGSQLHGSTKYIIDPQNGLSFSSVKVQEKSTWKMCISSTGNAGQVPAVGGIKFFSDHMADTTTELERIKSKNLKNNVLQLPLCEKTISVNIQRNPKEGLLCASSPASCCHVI

TAK1 = target: T6, TAK1 (Homo sapiens, UniProt O43318); assay: biochemical; conditions: read-out: % enzyme activity, 1 μM; Run 1, Run 2
T6 sequence (O43318 1-303 limits assumed): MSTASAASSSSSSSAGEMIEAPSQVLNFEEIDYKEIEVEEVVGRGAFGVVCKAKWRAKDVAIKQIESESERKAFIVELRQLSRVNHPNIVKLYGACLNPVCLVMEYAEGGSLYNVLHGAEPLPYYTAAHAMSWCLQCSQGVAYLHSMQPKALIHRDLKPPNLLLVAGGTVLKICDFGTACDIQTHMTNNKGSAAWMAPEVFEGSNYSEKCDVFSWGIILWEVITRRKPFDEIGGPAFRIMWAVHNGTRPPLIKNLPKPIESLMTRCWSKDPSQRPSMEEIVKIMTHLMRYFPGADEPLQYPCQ

T2 sequence (Q8N4C8 whole entry): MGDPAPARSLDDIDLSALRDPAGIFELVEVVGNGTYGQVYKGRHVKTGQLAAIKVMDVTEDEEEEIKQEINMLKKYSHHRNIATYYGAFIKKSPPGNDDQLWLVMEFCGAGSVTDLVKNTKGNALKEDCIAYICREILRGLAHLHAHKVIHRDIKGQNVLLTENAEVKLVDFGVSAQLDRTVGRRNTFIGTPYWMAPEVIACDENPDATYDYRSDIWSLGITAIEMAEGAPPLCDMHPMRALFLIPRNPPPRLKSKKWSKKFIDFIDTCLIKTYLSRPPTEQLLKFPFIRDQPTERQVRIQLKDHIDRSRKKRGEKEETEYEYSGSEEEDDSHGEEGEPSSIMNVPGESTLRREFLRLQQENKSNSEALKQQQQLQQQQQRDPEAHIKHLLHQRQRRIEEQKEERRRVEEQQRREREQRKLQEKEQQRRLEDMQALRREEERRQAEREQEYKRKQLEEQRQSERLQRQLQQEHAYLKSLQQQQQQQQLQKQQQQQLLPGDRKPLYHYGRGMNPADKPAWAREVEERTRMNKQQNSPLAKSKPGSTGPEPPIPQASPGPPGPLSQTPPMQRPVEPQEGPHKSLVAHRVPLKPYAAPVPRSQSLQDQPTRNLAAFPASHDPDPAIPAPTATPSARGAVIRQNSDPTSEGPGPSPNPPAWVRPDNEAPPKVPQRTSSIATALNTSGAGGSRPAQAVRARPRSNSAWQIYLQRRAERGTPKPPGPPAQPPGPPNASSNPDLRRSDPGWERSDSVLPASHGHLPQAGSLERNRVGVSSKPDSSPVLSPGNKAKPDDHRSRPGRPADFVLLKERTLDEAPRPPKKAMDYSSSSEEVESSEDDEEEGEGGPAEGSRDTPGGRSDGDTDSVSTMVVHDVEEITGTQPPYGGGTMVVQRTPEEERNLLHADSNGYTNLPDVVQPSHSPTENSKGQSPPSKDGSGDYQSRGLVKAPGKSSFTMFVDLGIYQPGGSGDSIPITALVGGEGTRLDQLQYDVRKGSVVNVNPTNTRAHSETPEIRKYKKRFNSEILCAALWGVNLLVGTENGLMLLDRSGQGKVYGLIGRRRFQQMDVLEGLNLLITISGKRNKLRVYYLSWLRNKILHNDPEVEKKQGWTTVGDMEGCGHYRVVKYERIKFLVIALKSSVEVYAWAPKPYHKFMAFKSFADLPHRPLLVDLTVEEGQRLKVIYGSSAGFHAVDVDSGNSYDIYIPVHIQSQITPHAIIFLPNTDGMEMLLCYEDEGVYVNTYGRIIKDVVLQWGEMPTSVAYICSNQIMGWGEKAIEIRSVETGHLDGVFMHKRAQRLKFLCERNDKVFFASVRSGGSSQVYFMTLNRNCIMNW
T1 sequence (P07333 20-972): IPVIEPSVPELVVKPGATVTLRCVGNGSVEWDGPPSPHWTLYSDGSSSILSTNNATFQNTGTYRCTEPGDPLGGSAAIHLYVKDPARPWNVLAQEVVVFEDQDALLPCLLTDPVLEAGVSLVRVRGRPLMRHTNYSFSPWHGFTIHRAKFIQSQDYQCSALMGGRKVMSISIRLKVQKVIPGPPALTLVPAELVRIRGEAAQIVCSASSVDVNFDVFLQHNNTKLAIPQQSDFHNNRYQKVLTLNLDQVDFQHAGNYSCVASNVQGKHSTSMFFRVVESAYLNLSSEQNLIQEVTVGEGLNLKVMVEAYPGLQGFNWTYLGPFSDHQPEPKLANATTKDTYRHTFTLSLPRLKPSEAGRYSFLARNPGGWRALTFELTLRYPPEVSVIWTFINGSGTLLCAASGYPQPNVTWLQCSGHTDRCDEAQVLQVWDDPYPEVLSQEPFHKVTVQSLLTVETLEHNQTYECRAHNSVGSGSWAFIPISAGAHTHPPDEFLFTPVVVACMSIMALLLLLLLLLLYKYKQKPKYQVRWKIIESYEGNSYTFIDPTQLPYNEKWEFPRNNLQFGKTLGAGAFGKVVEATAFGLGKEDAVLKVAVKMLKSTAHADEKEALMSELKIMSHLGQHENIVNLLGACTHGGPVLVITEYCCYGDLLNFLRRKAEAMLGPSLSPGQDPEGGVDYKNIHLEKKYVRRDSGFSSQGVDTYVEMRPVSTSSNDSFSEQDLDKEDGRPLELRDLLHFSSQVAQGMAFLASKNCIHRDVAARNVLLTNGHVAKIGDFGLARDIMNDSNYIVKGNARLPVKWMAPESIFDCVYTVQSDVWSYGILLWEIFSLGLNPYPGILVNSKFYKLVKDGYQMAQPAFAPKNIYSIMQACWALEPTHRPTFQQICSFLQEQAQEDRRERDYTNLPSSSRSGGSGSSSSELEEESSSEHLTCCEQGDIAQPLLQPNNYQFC
GSK3a, sequence (P49840 whole entry): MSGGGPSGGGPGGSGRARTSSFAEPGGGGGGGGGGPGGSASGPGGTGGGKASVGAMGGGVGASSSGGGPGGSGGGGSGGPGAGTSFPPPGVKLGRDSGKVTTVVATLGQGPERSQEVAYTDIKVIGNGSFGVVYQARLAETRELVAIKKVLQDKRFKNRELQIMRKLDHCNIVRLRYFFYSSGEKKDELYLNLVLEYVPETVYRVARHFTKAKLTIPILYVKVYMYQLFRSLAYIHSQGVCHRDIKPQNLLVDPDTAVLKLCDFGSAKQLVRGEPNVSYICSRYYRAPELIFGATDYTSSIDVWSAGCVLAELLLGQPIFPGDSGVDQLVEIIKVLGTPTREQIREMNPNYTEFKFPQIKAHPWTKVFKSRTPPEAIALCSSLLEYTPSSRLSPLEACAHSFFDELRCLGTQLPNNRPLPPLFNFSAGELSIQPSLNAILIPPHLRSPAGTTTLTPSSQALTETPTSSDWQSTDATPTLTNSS
IRR/INSRR, sequence (P14616 27-1297): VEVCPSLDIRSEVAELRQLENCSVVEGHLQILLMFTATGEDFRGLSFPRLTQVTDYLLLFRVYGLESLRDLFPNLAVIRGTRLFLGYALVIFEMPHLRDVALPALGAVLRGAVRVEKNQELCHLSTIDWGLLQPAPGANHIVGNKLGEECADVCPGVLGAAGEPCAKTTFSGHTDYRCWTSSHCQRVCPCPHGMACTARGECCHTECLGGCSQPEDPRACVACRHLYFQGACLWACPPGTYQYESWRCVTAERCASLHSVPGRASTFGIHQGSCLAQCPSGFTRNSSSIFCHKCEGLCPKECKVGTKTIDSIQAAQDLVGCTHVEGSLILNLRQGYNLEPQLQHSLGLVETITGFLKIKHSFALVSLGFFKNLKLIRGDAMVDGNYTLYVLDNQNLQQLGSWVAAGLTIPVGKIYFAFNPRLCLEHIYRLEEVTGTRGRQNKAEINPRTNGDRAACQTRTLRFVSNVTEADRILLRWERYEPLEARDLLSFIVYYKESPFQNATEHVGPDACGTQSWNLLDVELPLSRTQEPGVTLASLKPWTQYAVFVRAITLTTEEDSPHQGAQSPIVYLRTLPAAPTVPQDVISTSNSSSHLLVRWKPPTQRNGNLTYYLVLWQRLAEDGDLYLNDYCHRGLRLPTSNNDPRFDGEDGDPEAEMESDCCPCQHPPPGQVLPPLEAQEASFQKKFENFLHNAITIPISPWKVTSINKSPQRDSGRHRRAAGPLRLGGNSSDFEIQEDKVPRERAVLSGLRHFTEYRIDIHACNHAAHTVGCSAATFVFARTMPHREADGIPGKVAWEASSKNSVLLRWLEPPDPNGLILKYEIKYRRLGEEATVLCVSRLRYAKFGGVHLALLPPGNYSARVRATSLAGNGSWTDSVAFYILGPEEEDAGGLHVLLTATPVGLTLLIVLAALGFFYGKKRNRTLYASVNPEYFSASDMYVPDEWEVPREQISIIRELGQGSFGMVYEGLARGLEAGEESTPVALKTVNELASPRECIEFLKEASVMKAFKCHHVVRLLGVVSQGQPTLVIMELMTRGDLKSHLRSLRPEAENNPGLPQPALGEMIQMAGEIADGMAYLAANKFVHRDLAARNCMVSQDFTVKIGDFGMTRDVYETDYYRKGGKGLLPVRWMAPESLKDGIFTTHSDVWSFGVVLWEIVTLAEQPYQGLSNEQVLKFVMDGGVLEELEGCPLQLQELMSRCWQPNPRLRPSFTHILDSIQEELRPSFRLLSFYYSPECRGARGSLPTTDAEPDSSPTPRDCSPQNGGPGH
CDK1/cyclin E, sequence (P24864 whole entry): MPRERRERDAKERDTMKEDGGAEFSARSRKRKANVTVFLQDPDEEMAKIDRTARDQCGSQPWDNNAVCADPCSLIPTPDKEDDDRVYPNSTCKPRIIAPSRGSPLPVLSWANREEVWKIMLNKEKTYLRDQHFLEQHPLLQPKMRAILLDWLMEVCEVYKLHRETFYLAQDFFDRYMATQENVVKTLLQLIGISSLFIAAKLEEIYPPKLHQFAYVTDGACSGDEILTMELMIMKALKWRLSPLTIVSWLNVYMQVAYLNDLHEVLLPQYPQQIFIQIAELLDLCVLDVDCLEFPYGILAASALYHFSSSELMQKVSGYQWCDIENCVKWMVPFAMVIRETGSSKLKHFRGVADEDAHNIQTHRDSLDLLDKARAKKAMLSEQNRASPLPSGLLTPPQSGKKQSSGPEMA
CDK1/cyclin E, sequence (P06493 whole entry): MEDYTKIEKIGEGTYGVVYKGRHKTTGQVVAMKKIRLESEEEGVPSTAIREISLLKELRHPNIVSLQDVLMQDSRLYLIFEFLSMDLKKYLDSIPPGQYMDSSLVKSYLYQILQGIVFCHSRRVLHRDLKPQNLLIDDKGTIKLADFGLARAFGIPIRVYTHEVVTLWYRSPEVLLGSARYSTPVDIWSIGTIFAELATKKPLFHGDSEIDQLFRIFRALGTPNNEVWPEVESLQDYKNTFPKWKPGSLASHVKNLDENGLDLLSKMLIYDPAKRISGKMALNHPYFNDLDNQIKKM

Row | SMILES | CYP inhibition (CYP2C8) [µM] | % enzyme activity (FMS) [%] | remaining activity at 1 µM (FMS) [%] | % enzyme activity (MINK/MINK1) [%] | remaining activity at 1 µM (MINK/MINK1) [%] | % enzyme activity (CDK1/cyclin E) [%] | % enzyme activity (EPHA4) [%] | % enzyme activity (NEK5) [%] | remaining activity at 1 µM (CDK2/cyclin A) [%] | remaining activity at 1 µM (DYRK3) [%] | remaining activity at 1 µM (GSK3a) [%] | remaining activity at 1 µM (IRR/INSRR) [%] | remaining activity at 1 µM (SNRK) [%] | remaining activity at 1 µM (TAK1) [%]
1 | COc1cc(-c2cncc(-c3ccc(N4C[C@@H](C)N(C)[C@@H](C)C4)cc3)c2C)cc(F)c1C(N)=O [Compound 26c, 2-Fluoro-6-methoxy-4-(4-methyl-5-(4-((3R,5S)-3,4,5-trimethylpiperazin-1-yl)phenyl)pyridin-3-yl)benzamide] | > 50 | 78.83 | 79.5 | 29.65 | 30.2 | 91.92 | 98.76 | 93.10 | 100 | 96 | 102 | 121 | 100 | 99.1
2 | COc1cc(-c2cncc(-c3ccc(N4CCN(C)CC4)cc3)c2C)cc(F)c1C(N)=O [Compound 26a, 2-Fluoro-6-methoxy-4-(4-methyl-5-(4-(4-methylpiperazin-1-yl)phenyl)pyridin-3-yl)benzamide] | > 50 | 75.66 | 82.2 | 22.65 | 24.1 | 97.19 | 91.81 | 97.51 | 100 | 90.4 | 102 | 108 | 105 | 98.5
